Results reported in ChEMBL document CHEMBL3132769, “Fragment growing to retain or alter the selectivity of anchored kinase hinge-binding fragments” (Medchemcomm, 2014).

What was measured:
[1] = target: T1, MAP kinase-activated protein kinase 5 (Homo sapiens) (UniProt Q8IW41); experiment: Inhibition of human full length PRAK expressed in baculovirus assessed as substrate phosphorylation using fluorescence-labelled peptides as substrate at 0.2 uM after 90 mins by microfluidic peptide phosphorylation assay
T1 sequence (whole entry): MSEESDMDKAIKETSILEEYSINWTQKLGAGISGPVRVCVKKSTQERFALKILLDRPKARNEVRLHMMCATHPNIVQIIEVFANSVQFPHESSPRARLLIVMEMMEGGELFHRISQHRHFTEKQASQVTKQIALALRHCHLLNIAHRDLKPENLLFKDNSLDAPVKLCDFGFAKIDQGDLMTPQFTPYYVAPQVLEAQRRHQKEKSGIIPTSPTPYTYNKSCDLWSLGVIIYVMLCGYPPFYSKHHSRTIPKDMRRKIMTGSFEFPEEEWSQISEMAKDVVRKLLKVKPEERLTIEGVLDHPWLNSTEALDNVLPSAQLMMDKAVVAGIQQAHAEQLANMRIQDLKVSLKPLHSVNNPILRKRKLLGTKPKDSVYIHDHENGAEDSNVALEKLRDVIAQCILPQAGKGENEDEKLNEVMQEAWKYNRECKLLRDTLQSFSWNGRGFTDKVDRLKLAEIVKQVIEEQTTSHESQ

[2] = test system: Tyrosine-protein kinase ABL1 (Homo sapiens), P00519 [H396P]; experiment: Inhibition of human truncated ABL H396P mutant expressed in baculovirus assessed as substrate phosphorylation using fluorescence-labelled peptides as substrate at 2 uM after 90 mins by microfluidic peptide phosphorylation assay
[3] = target: Serine/threonine-protein kinase MARK1 (Homo sapiens) (UniProt Q9P0L2); experiment: Inhibition of human full length MARK1 expressed in baculovirus assessed as substrate phosphorylation using fluorescence-labelled peptides as substrate at 2 uM after 90 mins by microfluidic peptide phosphorylation assay
[4] = target: Mitogen-activated protein kinase 14 (Homo sapiens) (UniProt Q16539); experiment: Inhibition of human truncated p38 alpha expressed in Escherichia coli cell assessed as substrate phosphorylation using fluorescence-labelled peptides as substrate at 2 uM after 90 mins by microfluidic peptide phosphorylation assay
[5] = target: T2, Serine/threonine-protein kinase D3 (Homo sapiens) (UniProt O94806); experiment: Inhibition of human full length PKD3 expressed in baculovirus assessed as substrate phosphorylation using fluorescence-labelled peptides as substrate at 1000 uM after 90 mins by microfluidic peptide phosphorylation assay
T2 sequence (whole entry): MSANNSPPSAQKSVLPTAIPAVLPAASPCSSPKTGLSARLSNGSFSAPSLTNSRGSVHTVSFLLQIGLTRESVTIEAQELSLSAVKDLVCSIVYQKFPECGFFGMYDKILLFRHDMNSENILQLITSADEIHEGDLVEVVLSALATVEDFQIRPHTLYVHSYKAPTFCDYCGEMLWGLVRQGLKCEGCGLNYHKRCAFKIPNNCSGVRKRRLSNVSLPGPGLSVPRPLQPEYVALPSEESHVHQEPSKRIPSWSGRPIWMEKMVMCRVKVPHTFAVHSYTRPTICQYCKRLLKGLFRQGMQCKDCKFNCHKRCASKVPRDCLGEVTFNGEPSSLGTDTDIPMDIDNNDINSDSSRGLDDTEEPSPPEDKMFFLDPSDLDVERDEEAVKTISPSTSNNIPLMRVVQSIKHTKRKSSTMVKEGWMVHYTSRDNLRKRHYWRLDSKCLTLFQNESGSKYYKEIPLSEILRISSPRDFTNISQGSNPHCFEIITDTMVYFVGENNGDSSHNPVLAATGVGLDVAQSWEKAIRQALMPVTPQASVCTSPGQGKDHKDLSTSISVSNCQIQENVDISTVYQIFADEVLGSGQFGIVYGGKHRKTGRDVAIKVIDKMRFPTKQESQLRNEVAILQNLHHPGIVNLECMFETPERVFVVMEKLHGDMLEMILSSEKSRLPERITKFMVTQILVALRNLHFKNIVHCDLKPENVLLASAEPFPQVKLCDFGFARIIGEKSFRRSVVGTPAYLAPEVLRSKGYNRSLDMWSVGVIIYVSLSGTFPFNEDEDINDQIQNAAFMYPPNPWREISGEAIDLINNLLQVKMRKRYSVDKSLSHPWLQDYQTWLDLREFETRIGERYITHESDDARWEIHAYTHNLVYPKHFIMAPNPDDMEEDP

[6] = target: Mitogen-activated protein kinase 3 (Homo sapiens) (UniProt P27361); experiment: Inhibition of human full length ERK1 expressed in Escherichia coli cell assessed as substrate phosphorylation using fluorescence-labelled peptides as substrate at 420 uM after 90 mins by microfluidic peptide phosphorylation assay
[7] = target: Protein kinase C beta type (Homo sapiens) (UniProt P05771); experiment: Inhibition of human truncated PKC beta1 expressed in baculovirus assessed as substrate phosphorylation using fluorescence-labelled peptides as substrate at 9 uM after 90 mins by microfluidic peptide phosphorylation assay
[8] = target: Insulin-like growth factor 1 receptor (Homo sapiens) (UniProt P08069); experiment: Inhibition of human IGF1R catalytic domain expressed in baculovirus assessed as substrate phosphorylation using fluorescence-labelled peptides as substrate at 9 uM after 90 mins by microfluidic peptide phosphorylation assay
[9] = target: Glycogen synthase kinase-3 beta (Homo sapiens) (UniProt P49841); experiment: Inhibition of human full length GSK-3 beta expressed in baculovirus assessed as substrate phosphorylation using fluorescence-labelled peptides as substrate at 70 uM after 90 mins by microfluidic peptide phosphorylation assay
[10] = target: Serine/threonine-protein kinase MARK2 (Homo sapiens) (UniProt Q7KZI7); experiment: Inhibition of human full length MARK2 expressed in baculovirus assessed as substrate phosphorylation using fluorescence-labelled peptides as substrate at 70 uM after 90 mins by microfluidic peptide phosphorylation assay
[11] = target: T3, Serine/threonine-protein kinase Nek2 (Homo sapiens) (UniProt P51955); experiment: Inhibition of human full length NEK2 expressed in baculovirus assessed as substrate phosphorylation using fluorescence-labelled peptides as substrate at 70 uM after 90 mins by microfluidic peptide phosphorylation assay
T3 sequence (whole entry): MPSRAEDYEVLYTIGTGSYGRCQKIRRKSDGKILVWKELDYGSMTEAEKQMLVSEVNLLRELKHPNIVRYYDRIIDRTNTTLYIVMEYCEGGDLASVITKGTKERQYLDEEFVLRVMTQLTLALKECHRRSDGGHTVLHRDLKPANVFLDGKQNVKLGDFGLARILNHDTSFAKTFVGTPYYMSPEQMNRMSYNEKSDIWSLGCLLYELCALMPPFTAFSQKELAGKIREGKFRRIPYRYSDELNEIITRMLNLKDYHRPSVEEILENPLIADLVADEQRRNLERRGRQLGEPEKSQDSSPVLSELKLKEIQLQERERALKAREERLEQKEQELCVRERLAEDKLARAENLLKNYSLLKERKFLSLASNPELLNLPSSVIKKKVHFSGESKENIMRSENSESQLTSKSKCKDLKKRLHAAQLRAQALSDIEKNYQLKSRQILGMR

[12] = test system: Tyrosine-protein kinase ABL1 (Homo sapiens), P00519 [H396P]; experiment: Inhibition of human truncated ABL H396P mutant expressed in baculovirus assessed as substrate phosphorylation using fluorescence-labelled peptides as substrate at 70 uM after 90 mins by microfluidic peptide phosphorylation assay

Serine/threonine-protein kinase MARK1 (Homo sapiens), sequence (Q9P0L2 whole entry, looked up, the tested form may be a part): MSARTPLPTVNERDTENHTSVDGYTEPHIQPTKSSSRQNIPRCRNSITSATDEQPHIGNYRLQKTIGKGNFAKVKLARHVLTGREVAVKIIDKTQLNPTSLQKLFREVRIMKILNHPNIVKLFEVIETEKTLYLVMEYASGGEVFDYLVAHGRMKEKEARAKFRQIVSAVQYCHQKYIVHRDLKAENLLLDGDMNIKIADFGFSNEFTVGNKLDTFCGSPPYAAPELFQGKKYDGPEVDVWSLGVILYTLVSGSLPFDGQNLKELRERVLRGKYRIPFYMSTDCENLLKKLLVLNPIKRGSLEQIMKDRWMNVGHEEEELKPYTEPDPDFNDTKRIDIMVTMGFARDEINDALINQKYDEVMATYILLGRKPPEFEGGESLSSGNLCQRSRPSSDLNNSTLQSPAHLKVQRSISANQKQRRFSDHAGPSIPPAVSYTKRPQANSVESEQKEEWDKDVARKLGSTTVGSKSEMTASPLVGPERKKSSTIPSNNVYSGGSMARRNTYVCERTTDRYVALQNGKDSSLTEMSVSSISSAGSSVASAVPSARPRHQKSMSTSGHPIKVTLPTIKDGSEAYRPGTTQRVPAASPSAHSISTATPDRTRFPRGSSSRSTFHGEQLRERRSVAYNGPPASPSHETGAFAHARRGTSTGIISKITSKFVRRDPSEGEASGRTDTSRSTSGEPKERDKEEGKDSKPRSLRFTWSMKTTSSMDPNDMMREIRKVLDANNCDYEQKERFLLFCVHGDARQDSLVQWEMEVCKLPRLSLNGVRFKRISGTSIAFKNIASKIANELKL
Mitogen-activated protein kinase 14 (Homo sapiens), sequence (Q16539 whole entry, the tested form may be a part): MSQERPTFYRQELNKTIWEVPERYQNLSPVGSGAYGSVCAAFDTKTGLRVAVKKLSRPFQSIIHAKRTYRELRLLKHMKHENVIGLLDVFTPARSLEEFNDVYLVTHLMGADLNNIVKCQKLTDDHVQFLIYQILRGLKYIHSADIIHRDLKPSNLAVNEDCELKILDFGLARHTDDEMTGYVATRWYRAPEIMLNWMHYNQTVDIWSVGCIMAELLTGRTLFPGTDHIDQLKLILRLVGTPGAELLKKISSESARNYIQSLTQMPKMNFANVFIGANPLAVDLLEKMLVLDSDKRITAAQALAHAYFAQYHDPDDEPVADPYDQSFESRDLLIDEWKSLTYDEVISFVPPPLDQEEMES
Mitogen-activated protein kinase 3 (Homo sapiens), sequence (P27361 whole entry, the tested form may be a part): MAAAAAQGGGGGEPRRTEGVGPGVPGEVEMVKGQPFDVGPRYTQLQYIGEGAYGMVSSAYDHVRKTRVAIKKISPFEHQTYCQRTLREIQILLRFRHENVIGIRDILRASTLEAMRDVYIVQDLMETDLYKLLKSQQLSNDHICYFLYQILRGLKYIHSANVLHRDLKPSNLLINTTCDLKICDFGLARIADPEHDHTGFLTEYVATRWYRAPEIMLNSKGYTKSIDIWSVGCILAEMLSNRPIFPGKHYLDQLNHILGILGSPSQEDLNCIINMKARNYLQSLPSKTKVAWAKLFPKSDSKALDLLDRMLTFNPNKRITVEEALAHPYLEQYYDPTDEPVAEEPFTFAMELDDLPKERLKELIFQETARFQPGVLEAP
Protein kinase C beta type (Homo sapiens), sequence (P05771 2-671 limits assumed): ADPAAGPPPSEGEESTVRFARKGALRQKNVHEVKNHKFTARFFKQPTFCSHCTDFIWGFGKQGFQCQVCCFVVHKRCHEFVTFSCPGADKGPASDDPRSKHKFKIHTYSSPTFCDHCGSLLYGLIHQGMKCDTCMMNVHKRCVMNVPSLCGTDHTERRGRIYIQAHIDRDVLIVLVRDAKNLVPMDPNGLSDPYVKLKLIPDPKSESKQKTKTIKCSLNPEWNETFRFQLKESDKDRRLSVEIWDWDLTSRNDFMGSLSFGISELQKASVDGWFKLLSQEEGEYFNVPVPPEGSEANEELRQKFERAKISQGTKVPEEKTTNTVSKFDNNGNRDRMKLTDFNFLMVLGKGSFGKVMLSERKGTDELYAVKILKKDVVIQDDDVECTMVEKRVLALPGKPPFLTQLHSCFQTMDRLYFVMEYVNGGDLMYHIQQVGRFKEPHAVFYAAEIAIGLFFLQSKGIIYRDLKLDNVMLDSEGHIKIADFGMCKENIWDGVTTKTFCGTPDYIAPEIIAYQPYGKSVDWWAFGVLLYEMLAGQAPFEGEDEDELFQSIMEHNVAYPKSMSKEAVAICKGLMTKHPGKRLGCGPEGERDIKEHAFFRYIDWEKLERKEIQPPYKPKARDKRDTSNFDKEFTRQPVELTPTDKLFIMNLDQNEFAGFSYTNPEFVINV
Serine/threonine-protein kinase MARK2 (Homo sapiens), sequence (Q7KZI7 whole entry): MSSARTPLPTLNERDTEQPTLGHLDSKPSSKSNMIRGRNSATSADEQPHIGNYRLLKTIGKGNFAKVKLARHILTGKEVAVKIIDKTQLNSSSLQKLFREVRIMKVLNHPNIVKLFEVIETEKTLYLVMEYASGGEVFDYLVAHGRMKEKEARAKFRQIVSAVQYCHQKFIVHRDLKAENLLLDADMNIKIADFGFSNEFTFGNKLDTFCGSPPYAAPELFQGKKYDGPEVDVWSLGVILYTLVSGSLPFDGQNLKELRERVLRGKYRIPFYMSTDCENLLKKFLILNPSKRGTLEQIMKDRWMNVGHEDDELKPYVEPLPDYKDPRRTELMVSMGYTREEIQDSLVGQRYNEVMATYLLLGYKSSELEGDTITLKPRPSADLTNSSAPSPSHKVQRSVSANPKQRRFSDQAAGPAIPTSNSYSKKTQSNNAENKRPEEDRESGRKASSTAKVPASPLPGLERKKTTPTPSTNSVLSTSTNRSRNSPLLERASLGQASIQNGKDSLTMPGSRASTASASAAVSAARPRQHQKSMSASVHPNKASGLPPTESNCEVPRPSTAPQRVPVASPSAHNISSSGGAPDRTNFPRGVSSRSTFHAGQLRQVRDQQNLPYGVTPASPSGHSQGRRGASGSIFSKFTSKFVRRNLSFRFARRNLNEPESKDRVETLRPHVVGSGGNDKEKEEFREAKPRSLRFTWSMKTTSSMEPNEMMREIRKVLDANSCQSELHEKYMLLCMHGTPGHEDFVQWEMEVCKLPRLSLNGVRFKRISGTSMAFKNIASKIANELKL
Glycogen synthase kinase-3 beta (Homo sapiens), sequence (P49841 whole entry, looked up): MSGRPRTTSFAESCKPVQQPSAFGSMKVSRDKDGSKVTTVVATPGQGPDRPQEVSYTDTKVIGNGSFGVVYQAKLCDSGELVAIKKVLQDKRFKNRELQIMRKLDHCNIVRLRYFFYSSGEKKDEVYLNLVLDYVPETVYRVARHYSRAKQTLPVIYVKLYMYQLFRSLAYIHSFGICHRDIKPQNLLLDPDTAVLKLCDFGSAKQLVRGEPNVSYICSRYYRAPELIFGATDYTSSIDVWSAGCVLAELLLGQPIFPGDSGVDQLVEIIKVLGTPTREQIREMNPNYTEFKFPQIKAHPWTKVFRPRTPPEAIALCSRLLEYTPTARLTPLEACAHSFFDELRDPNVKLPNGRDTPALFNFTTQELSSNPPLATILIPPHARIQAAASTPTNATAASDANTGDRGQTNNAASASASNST

SMILES: Clc1ccc(C2(c3ccc(-c4ncnc5[nH]cnc45)cc3)CCNCC2)cc1
- inhibition [1]: 8.5%

SMILES: NC1CCN(c2ncnc3[nH]ccc23)CC1
- inhibition [2]: 2.5%
- inhibition [3]: 34.5%
- inhibition [4]: 2%

SMILES: c1cnc2[nH]ccc2c1
- inhibition [5]: 62.5%

SMILES: c1nc(N2CCOCC2)c2nc[nH]c2n1
- inhibition [6]: 78.5%

SMILES: NCC1CN(c2ncnc3[nH]c4cnccc4c23)CCO1 (configuration not stated)
- inhibition [7]: 22.5%
- inhibition [8]: 10%

SMILES: CNCc1ccc(-c2ncnc3[nH]cnc23)cc1
- inhibition [9]: 37.5%
- inhibition [10]: 61%
- inhibition [11]: 15.5%
- inhibition [12]: 42.5%
